Data from PMC4666032, “KPT-330, a potent and selective exportin-1 (XPO-1) inhibitor, shows antitumor effects modulating the expression of cyclin D1 and survivin in prostate cancer models” (BMC Cancer, 2015).

Tests used:
22rv1 xenografts = experiment: 22rv1 xenograft in male nude mice; format: in vivo; conditions: PO Mon/Wed/Fri, vs vehicle
Source text: Male CD1 nude mice (Charles River, Milan, Italy) were maintained under the guidelines established by the University of L’Aquila, Medical School and Science and Technology School Board Regulations. Experiments on animals have been approved by your local IRB in compliance with the Italian government regulation n.116 January 27, 1992 for the use of laboratory animals which is line with ARRIVE guidelines. All mice received subcutaneous flank injections of 1 x 10^6 PC3, DU145 or 22v1 cells. Tumor growth was measured bi-weekly with a Vernier caliper (length x width). Tumor weight was calculated according to the formula: TW (mg) = tumor volume (mm^3) = d2 x D/2, where d and D are the shortest and longest diameters, respectively. The effects of the treatments were examined as previously described. […]
Mice were treated by oral gavage with either vehicle control (Pluronic F-68/PVP-K29/32), KPT330 or KPT251. […] In vivo, combinational studies were evaluated by CalcuSyn (Biosoft). For the calculation of CI, the values of cell kill for a fixed tumor volume were considered (determined by the log cell kill (LCK)). LCK was determined as LCKZ (TKC)/(3.3KTd), where Td represents the mean control group doubling time required to reach a fixed tumor volume, expressed in days, whereas T and C are the same values as described above. […]

PC3 xenografts = experiment: PC3 xenograft in male nude mice; format: in vivo; conditions: for apoptosis in tumors (TUNEL staining) / cell proliferation in tumors (Ki-67 staining): KPT-251 100 mg/kg or KPT-330 10 mg/kg, sectioned tumors, PC3 xenografts (Fig. 7); for tumor weight: PC3 xenografts, PO Mon/Wed/Fri, vs vehicle
Source text: Male CD1 nude mice (Charles River, Milan, Italy) were maintained under the guidelines established by the University of L’Aquila, Medical School and Science and Technology School Board Regulations. Experiments on animals have been approved by your local IRB in compliance with the Italian government regulation n.116 January 27, 1992 for the use of laboratory animals which is line with ARRIVE guidelines. All mice received subcutaneous flank injections of 1 x 10^6 PC3, DU145 or 22v1 cells. Tumor growth was measured bi-weekly with a Vernier caliper (length x width). Tumor weight was calculated according to the formula: TW (mg) = tumor volume (mm^3) = d2 x D/2, where d and D are the shortest and longest diameters, respectively. The effects of the treatments were examined as previously described. Animals were sacrificed by carbon dioxide inhalation and tumors were subsequently removed surgically. A piece of tumor was frozen in liquid nitrogen for protein analysis and another piece was fixed in paraformaldehyde overnight for immunohistochemical analyses.
Mice were treated by oral gavage with either vehicle control (Pluronic F-68/PVP-K29/32), KPT330 or KPT251. Before tumor injection, animals were randomized into seven treatment groups as follows: Group 1: mice (10 animals) receiving 100 μl vehicle PO; Group 2: mice (10 animals) receiving 100 mg/kg KPT-251 every two days (Monday and Friday)/week PO; Group 3: mice (10 animals) receiving 30 mg/kg KPT-251 every two day/week PO; Group 4: mice (10 animals) receiving 10 mg/kg/day PO; Group 5: mice (10 animals) receiving 30 mg/kg KPT-330 every two days/week PO; Group 6: mice (10 animals) receiving 10 mg/kg KPT-330 every two days/week PO; Group 7: mice (10 animals) receiving 3 mg/kg/day KPT-330 PO. Treatments were started when tumor volumes reached approximately 80 mm^3 (Day 0) and were stopped after 28 days. The following parameters were used to quantify the antitumor effects upon different treatments: (1) tumor volume measured during and at the end of experiments, (2) tumor weight measured at the end of experiment, (3) complete response (CR) defined as the disappearance of the target lesion with respect to baseline, (4) partial response (PR) defined as a reduction of greater than 50 % of tumor volume with respect to baseline, (5) stable disease (SD) defined as a reduction of less than 50 % or an increase of less than 100 % of tumor volume with respect to baseline, (6) tumor progression (TP) defined as an increase of greater than […] of tumor volume with respect to baseline, (7) time to progression (TTP). In vivo, combinational studies were evaluated by CalcuSyn (Biosoft). For the calculation of CI, the values of cell kill for a fixed tumor volume were considered (determined by the log cell kill (LCK)). LCK was determined as LCKZ (TKC)/(3.3KTd), where Td represents the mean control group doubling time required to reach a fixed tumor volume, expressed in days, whereas T and C are the same values as described above.
To determine the effects of XPO-1 inhibition on prostate cancer growth in vivo, we used […] aggressive CRPC, PC3, DU145 and 22rv1, cell lines engrafted in male nude mice. Once tumors were established (80–100 mm3 in size), mice were divided into seven different groups (10 mice/group) and treated with varying doses of KPT-251 (10, 30, 100 mg/kg PO QoDx3) and KPT-330 (5, 10, 20 mg/kg PO QoDx3). Tumors were measured for 35 days. The effects of KPT-251 on tumor growth is shown in Fig. 5 and KPT-330 in Fig. 6. The mean tumor weight was calculated for each treatment group. […]

SMILES	tumor weight (22rv1 xenografts)	apoptosis in tumors (TUNEL staining) (PC3 xenografts)	cell proliferation in tumors (Ki-67 staining) (PC3 xenografts)	tumor weight (PC3 xenografts)
O=C(/C=C\n1cnc(-c2cc(C(F)(F)F)cc(C(F)(F)F)c2)n1)NNc1cnccn1 [KPT-330]	reduce tumor weight in a dose-dependent manner	increased apoptosis	decreased cell proliferation	reduce tumor weight in a dose-dependent manner
FC(F)(F)c1cc(-c2ncn(/C=C\c3nnco3)n2)cc(C(F)(F)F)c1 [KPT-251]	reduce tumor weight in a dose-dependent manner	increased apoptosis	decreased cell proliferation	reduce tumor weight in a dose-dependent manner
